# Reference: US9474790B2, “Stable, protracted GLP-1/glucagon receptor co-agonists for medical use” (Novo Nordisk A/S, priority 2013, dated 2016)
# Numbered stars: 1 amine (or outer) side, 2 acyl side, 3 side chain; on linkers, the order of the positions; unused ones are H or OH. Square brackets hold non-standard residues; d marks the D form. Side chains are listed from the residue outwards. Peptide text beside a SMILES is read from it. * marks the point of attachment. C18 diacid = O=C(O)CCCCCCCCCCCCCCCCC(=O)*; γGlu = O=C(O)[C@H](CCC(=O)[*:2])N[*:1]; AEEA = NCCOCCOCC(=O)O; Aib = CC(C)(N)C(=O)O
# Biological target: T1, human GLP-1 receptor (Homo sapiens, UniProt P43220)
# T1 construct: expressed in transfected cells; host or cells: BHK cells (parent BHKTS13), clone FCW467-12A/KZ10-1, with CRE luciferase
# T1 sequence (P43220 24-463): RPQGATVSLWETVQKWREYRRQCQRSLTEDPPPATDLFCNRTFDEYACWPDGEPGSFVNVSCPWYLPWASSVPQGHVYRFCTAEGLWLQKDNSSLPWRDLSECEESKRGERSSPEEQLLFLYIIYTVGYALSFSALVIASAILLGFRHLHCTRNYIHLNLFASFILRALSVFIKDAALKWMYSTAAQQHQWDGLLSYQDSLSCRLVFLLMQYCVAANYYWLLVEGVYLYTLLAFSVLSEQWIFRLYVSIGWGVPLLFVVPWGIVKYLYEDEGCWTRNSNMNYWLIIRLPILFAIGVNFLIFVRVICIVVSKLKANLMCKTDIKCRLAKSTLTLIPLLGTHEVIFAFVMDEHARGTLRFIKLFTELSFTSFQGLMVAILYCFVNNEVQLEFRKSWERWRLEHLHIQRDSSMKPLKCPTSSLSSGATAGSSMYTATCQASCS
# Assay: GLP-1 receptor potency, CRE luciferase reporter gene assay in BHK cells
# Format: cell-based
# Details: BHK cells expressing human GLP-1 receptor, read-out: EC50 GLP-1R
# Method in brief: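 BHK cells stably expressing human GLP-1 receptor with CRE-luciferase reporter, 5×10EE3 cells/well in phenol red-free DMEM with 10 mM Hepes, 2% ovalbumin, 0.2% Pluronic F-68. Compounds at final 1×10EE-6 to 1×10EE-13 M, 3 h at 37° C; steadylite luminescence; EC50 by four-parameter fit, in pM.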
row,SMILES,EC50 [nM]
1,CC(C)C[C@H](NC(=O)[C@H](Cc1ccc(O)cc1)NC(=O)[C@H](CCCCN)NC(=O)[C@H](CO)NC(=O)[C@H](CC(C)C)NC(=O)[C@H](CC(=O)O)NC(=O)[C@H](CO)NC(=O)[C@@H](NC(=O)[C@H](Cc1ccccc1)NC(=O)[C@@H](NC(=O)CNC(=O)[C@H](CCC(N)=O)NC(=O)C(C)(C)NC(=O)[C@@H](N)Cc1c[nH]cn1)[C@@H](C)O)[C@@H](C)O)C(=O)N[C@@H](CC(=O)O)C(=O)N[C@@H](C)C(=O)N[C@@H](CCCNC(=N)N)C(=O)N[C@@H](CCCNC(=N)N)C(=O)N[C@@H](C)C(=O)N[C@@H](CCCNC(=N)N)C(=O)N[C@@H](CC(=O)O)C(=O)N[C@@H](Cc1ccccc1)C(=O)N[C@H](C(=O)N[C@@H](CCC(N)=O)C(=O)N[C@@H](Cc1c[nH]c2ccccc12)C(=O)N[C@@H](CC(C)C)C(=O)N[C@@H](CC(C)C)C(=O)N[C@@H](CC(N)=O)C(=O)N[C@@H](CCCCNC(=O)CC[C@H](NC(=O)CC[C@H](NC(=O)COCCOCCNC(=O)COCCOCCNC(=O)CC[C@H](NC(=O)CCCCCCCCCCCCCCCCC(=O)O)C(=O)O)C(=O)O)C(=O)O)C(N)=O)C(C)C [Example 65] (H-H[Aib]QGTFTSDLSKYLDARRARDFVQWLLNK([γGlu-γGlu-AEEA-AEEA-γGlu-C18 diacid])-NH2; N-terminus assumed),0.006
2,"CC(C)C[C@H](NC(=O)[C@H](Cc1ccc(O)cc1)NC(=O)[C@H](CCCCN)NC(=O)[C@H](CO)NC(=O)[C@H](CC(C)C)NC(=O)[C@H](CC(=O)O)NC(=O)[C@H](CO)NC(=O)[C@@H](NC(=O)[C@H](Cc1ccccc1)NC(=O)[C@@H](NC(=O)CNC(=O)[C@H](CCC(N)=O)NC(=O)C(C)(C)NC(=O)[C@@H](N)Cc1c[nH]cn1)[C@@H](C)O)[C@@H](C)O)C(=O)N[C@@H](CCC(=O)O)C(=O)N[C@@H](CO)C(=O)N[C@@H](CCCNC(=N)N)C(=O)N[C@@H](CCCNC(=N)N)C(=O)N[C@@H](C)C(=O)N[C@@H](CCCNC(=N)N)C(=O)N[C@@H](CCC(=O)O)C(=O)N[C@@H](Cc1ccccc1)C(=O)N[C@H](C(=O)N[C@@H](CCC(N)=O)C(=O)N[C@@H](Cc1c[nH]c2ccccc12)C(=O)N[C@@H](CC(C)C)C(=O)N[C@@H](CC(C)C)C(=O)N[C@@H](CCCCNC(=O)CC[C@H](NC(=O)CC[C@H](NC(=O)COCCOCCNC(=O)COCCOCCNC(=O)CC[C@H](NC(=O)CCCCCCCCCCCCCCCCC(=O)O)C(=O)O)C(=O)O)C(=O)O)C(=O)N[C@H](C(N)=O)[C@@H](C)O)C(C)C [Example 23, N^ε28-[(4S)-4-carboxy-4-[[(4S)-4-carboxy-4-[[2-[2-[2-[[2-[2-[2-[[(4S)-4-carboxy-4-(17-carboxyheptadecanoylamino)butanoyl]amino]ethoxy]ethoxy]acetyl]amino]ethoxy]ethoxy]acetyl]amino]butanoyl]amino]butanoyl]-[Aib2,Leu10,Glu15,Arg20,Glu21,Leu27,Lys28]-Glucagon amide] (H-H[Aib]QGTFTSDLSKYLESRRAREFVQWLLK([γGlu-γGlu-AEEA-AEEA-γGlu-C18 diacid])T-NH2; N-terminus assumed)",0.0221
